This passage reports relative viability results from the supplement of paper PMC10307832.

The subject of the first test is HCC-366. Put plainly: relative viability (nuclei count vs DMSO), 5 days (fraction); higher = more cells survive. Conditions: first compound 0.253 µM. Summed up:
(§1)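 Dosing by pin tool came one day after lung cancer cell lines were seeded in 1536-well plates, using either one drug or a fixed anchor-drug dose plus five library-drug doses (not always all listed) in √10 steps. After 5 days, nuclei were counted on 4× images. Relative viability is treated-well nuclei count divided by vehicle-well nuclei count, and values are medians of duplicate plates.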
In turn, `Nc1cccc2c1CN(C1CCC(=O)NC1=O)C2=O` (configuration not stated) [Lenalidomide] + Nc1nc2[nH]cc(CCc3ccc(C(=O)N[C@@H](CCC(=O)O)C(=O)O)cc3)c2c(=O)[nH]1 [Pemetrexed] (partner 0.2 µM) had a relative viability of 0.161.

As for `Nc1cccc2c1CN(C1CCC(=O)NC1=O)C2=O` (configuration not stated) [Lenalidomide] + CC(=O)c1c(C)c2cnc(Nc3ccc(N4CCNCC4)cn3)nc2n(C2CCCC2)c1=O [Palbociclib] (partner 0.5 µM), the relative viability stood at 0.437.

For the compound `Nc1cccc2c1CN(C1CCC(=O)NC1=O)C2=O` (configuration not stated) [Lenalidomide] + O=C(CCCCCCC(=O)Nc1ccccc1)NO [Vorinostat] (partner 1 µM), the relative viability was found to be 0.335.

In turn, `Nc1cccc2c1CN(C1CCC(=O)NC1=O)C2=O` (configuration not stated) [Lenalidomide] + COc1cccc2cc(-c3nc([C@H]4CC[C@H](C(=O)O)CC4)n4ncnc(N)c34)[nH]c12 [OSI-027] (partner 0.5 µM) gave a relative viability of 1.02.

The same test, now with this note: first compound 0.8 µM.
`Nc1cccc2c1CN(C1CCC(=O)NC1=O)C2=O` (configuration not stated) [Lenalidomide] + Nc1ncn([C@H]2C[C@H](O)[C@@H](CO)O2)c(=O)n1 [Decitabine] (partner 2 µM) displayed a relative viability of 0.377.

`Nc1cccc2c1CN(C1CCC(=O)NC1=O)C2=O` (configuration not stated) [Lenalidomide] + N=C(N)NC(=N)NCCc1ccccc1 [Phenformin] (partner 250 µM) gave a relative viability of 0.547.

On to `Nc1cccc2c1CN(C1CCC(=O)NC1=O)C2=O` (configuration not stated) [Lenalidomide] + Nc1nc2[nH]cc(CCc3ccc(C(=O)N[C@@H](CCC(=O)O)C(=O)O)cc3)c2c(=O)[nH]1 [Pemetrexed] (partner 0.2 µM), for which the relative viability was determined as 0.123.

Consider `Nc1cccc2c1CN(C1CCC(=O)NC1=O)C2=O` (configuration not stated) [Lenalidomide] + CC(=O)c1c(C)c2cnc(Nc3ccc(N4CCNCC4)cn3)nc2n(C2CCCC2)c1=O [Palbociclib] (partner 0.5 µM), for which the relative viability came to 0.389.

The compound `Nc1cccc2c1CN(C1CCC(=O)NC1=O)C2=O` (configuration not stated) [Lenalidomide] + O=C(CCCCCCC(=O)Nc1ccccc1)NO [Vorinostat] (partner 1 µM) came in with a relative viability of 0.102.

`Nc1cccc2c1CN(C1CCC(=O)NC1=O)C2=O` (configuration not stated) [Lenalidomide] + COc1cccc2cc(-c3nc([C@H]4CC[C@H](C(=O)O)CC4)n4ncnc(N)c34)[nH]c12 [OSI-027] (partner 0.5 µM) displayed a relative viability of 0.709.

Still in this test, the particulars now being: first compound 2.53 µM.
With `Nc1cccc2c1CN(C1CCC(=O)NC1=O)C2=O` (configuration not stated) [Lenalidomide] + Nc1ncn([C@H]2C[C@H](O)[C@@H](CO)O2)c(=O)n1 [Decitabine] (partner 2 µM), the relative viability was found to be 0.366.

`Nc1cccc2c1CN(C1CCC(=O)NC1=O)C2=O` (configuration not stated) [Lenalidomide] + N=C(N)NC(=N)NCCc1ccccc1 [Phenformin] (partner 250 µM) gave a relative viability of 0.691.

`Nc1cccc2c1CN(C1CCC(=O)NC1=O)C2=O` (configuration not stated) [Lenalidomide] + Nc1nc2[nH]cc(CCc3ccc(C(=O)N[C@@H](CCC(=O)O)C(=O)O)cc3)c2c(=O)[nH]1 [Pemetrexed] (partner 0.2 µM) yielded a relative viability of 0.206.

Consider `Nc1cccc2c1CN(C1CCC(=O)NC1=O)C2=O` (configuration not stated) [Lenalidomide] + CC(=O)c1c(C)c2cnc(Nc3ccc(N4CCNCC4)cn3)nc2n(C2CCCC2)c1=O [Palbociclib] (partner 0.5 µM), for which the relative viability is 0.505.

`Nc1cccc2c1CN(C1CCC(=O)NC1=O)C2=O` (configuration not stated) [Lenalidomide] + O=C(CCCCCCC(=O)Nc1ccccc1)NO [Vorinostat] (partner 1 µM) showed a relative viability of 0.479.

On to `Nc1cccc2c1CN(C1CCC(=O)NC1=O)C2=O` (configuration not stated) [Lenalidomide] + COc1cccc2cc(-c3nc([C@H]4CC[C@H](C(=O)O)CC4)n4ncnc(N)c34)[nH]c12 [OSI-027] (partner 0.5 µM), for which the relative viability came out at 1.01.

The same test, now with this note: first compound 8 µM.
Compound `Nc1cccc2c1CN(C1CCC(=O)NC1=O)C2=O` (configuration not stated) [Lenalidomide] + Nc1ncn([C@H]2C[C@H](O)[C@@H](CO)O2)c(=O)n1 [Decitabine] (partner 2 µM) yielded a relative viability of 0.354.

As to `Nc1cccc2c1CN(C1CCC(=O)NC1=O)C2=O` (configuration not stated) [Lenalidomide] + N=C(N)NC(=N)NCCc1ccccc1 [Phenformin] (partner 250 µM), the relative viability stood at 0.548.

As to `Nc1cccc2c1CN(C1CCC(=O)NC1=O)C2=O` (configuration not stated) [Lenalidomide] + Nc1nc2[nH]cc(CCc3ccc(C(=O)N[C@@H](CCC(=O)O)C(=O)O)cc3)c2c(=O)[nH]1 [Pemetrexed] (partner 0.2 µM), the relative viability was 0.264.

Compound `Nc1cccc2c1CN(C1CCC(=O)NC1=O)C2=O` (configuration not stated) [Lenalidomide] + CC(=O)c1c(C)c2cnc(Nc3ccc(N4CCNCC4)cn3)nc2n(C2CCCC2)c1=O [Palbociclib] (partner 0.5 µM) yielded a relative viability of 0.353.

`Nc1cccc2c1CN(C1CCC(=O)NC1=O)C2=O` (configuration not stated) [Lenalidomide] + O=C(CCCCCCC(=O)Nc1ccccc1)NO [Vorinostat] (partner 1 µM) registered a relative viability of 0.265.

`Nc1cccc2c1CN(C1CCC(=O)NC1=O)C2=O` (configuration not stated) [Lenalidomide] + COc1cccc2cc(-c3nc([C@H]4CC[C@H](C(=O)O)CC4)n4ncnc(N)c34)[nH]c12 [OSI-027] (partner 0.5 µM) came in with a relative viability of 0.747.

Another test relates to HCC-44. The test is described as above. Conditions: first compound 0.253 µM. The method in brief: as §1
For the compound `Nc1cccc2c1CN(C1CCC(=O)NC1=O)C2=O` (configuration not stated) [Lenalidomide] + Nc1ncn([C@H]2C[C@H](O)[C@@H](CO)O2)c(=O)n1 [Decitabine] (partner 2 µM), the relative viability came out at 0.946.

`Nc1cccc2c1CN(C1CCC(=O)NC1=O)C2=O` (configuration not stated) [Lenalidomide] + N=C(N)NC(=N)NCCc1ccccc1 [Phenformin] (partner 250 µM) had a relative viability of 0.272.

As to `Nc1cccc2c1CN(C1CCC(=O)NC1=O)C2=O` (configuration not stated) [Lenalidomide] + Nc1nc2[nH]cc(CCc3ccc(C(=O)N[C@@H](CCC(=O)O)C(=O)O)cc3)c2c(=O)[nH]1 [Pemetrexed] (partner 0.2 µM), the relative viability is 0.616.

`Nc1cccc2c1CN(C1CCC(=O)NC1=O)C2=O` (configuration not stated) [Lenalidomide] + CC(=O)c1c(C)c2cnc(Nc3ccc(N4CCNCC4)cn3)nc2n(C2CCCC2)c1=O [Palbociclib] (partner 0.5 µM) showed a relative viability of 0.965.

`Nc1cccc2c1CN(C1CCC(=O)NC1=O)C2=O` (configuration not stated) [Lenalidomide] + O=C(CCCCCCC(=O)Nc1ccccc1)NO [Vorinostat] (partner 1 µM) displayed a relative viability of 1.05.

In the case of `Nc1cccc2c1CN(C1CCC(=O)NC1=O)C2=O` (configuration not stated) [Lenalidomide] + COc1cccc2cc(-c3nc([C@H]4CC[C@H](C(=O)O)CC4)n4ncnc(N)c34)[nH]c12 [OSI-027] (partner 0.5 µM), the relative viability turned out to be 0.636.

The test is the same for the next values; noted with them: first compound 0.8 µM.
Regarding `Nc1cccc2c1CN(C1CCC(=O)NC1=O)C2=O` (configuration not stated) [Lenalidomide] + Nc1ncn([C@H]2C[C@H](O)[C@@H](CO)O2)c(=O)n1 [Decitabine] (partner 2 µM), the relative viability was determined as 0.781.

Consider `Nc1cccc2c1CN(C1CCC(=O)NC1=O)C2=O` (configuration not stated) [Lenalidomide] + Nc1nc2[nH]cc(CCc3ccc(C(=O)N[C@@H](CCC(=O)O)C(=O)O)cc3)c2c(=O)[nH]1 [Pemetrexed] (partner 0.2 µM), for which the relative viability was 0.638.

As to `Nc1cccc2c1CN(C1CCC(=O)NC1=O)C2=O` (configuration not stated) [Lenalidomide] + CC(=O)c1c(C)c2cnc(Nc3ccc(N4CCNCC4)cn3)nc2n(C2CCCC2)c1=O [Palbociclib] (partner 0.5 µM), the relative viability stood at 0.785.

In the case of `Nc1cccc2c1CN(C1CCC(=O)NC1=O)C2=O` (configuration not stated) [Lenalidomide] + O=C(CCCCCCC(=O)Nc1ccccc1)NO [Vorinostat] (partner 1 µM), the relative viability amounted to 0.926.
